Reference: the NIST ThermoML archive (doi:10.1021/je049595u)

What was measured:
[1] = Molar enthalpy of transition or fusion; conditions: Crystal
[2] = molar heat capacity at saturation pressure; conditions: Crystal, Vacuum adiabatic calorimetry

Cc1cccc2cccnc12 [8-methylquinoline]
Conditions	mass density [kg/m3]	vapor or sublimation pressure [kPa]
315.61 K, Liquid, Inclined piston gauge	–	0.0242
324.98 K, Liquid, Inclined piston gauge	–	0.0466
334.99 K, Liquid, Inclined piston gauge	–	0.0905
344.98 K, Liquid, Inclined piston gauge	–	0.1674
354.98 K, Liquid, Inclined piston gauge	–	0.2975
364.98 K, Liquid, Inclined piston gauge	–	0.5091
374.98 K, Liquid, Inclined piston gauge	–	0.8418
384.98 K, Liquid, Inclined piston gauge	–	1.35
393.84 K, Liquid, Twin ebulliometer	–	2.001
394.97 K, Liquid, Inclined piston gauge	–	2.102
400.6 K, Liquid, Twin ebulliometer	–	2.665
404.97 K, Liquid, Inclined piston gauge	–	3.19
410.7 K, Liquid, Twin ebulliometer	–	4.004
418.2 K, Liquid, Twin ebulliometer	–	5.336
429.38 K, Liquid, Twin ebulliometer	–	8.002
437.77 K, Liquid, Twin ebulliometer	–	10.67
444.5 K, Liquid, Twin ebulliometer	–	13.31
451.61 K, Liquid, Twin ebulliometer	–	16.67
457.46 K, Liquid, Twin ebulliometer	–	19.93
465.16 K, Liquid, Twin ebulliometer	–	25.02
465.17 K, Liquid, Twin ebulliometer	–	25.02
472.94 K, Liquid, Twin ebulliometer	–	31.18
480.74 K, Liquid, Twin ebulliometer	–	38.57
488.6 K, Liquid, Twin ebulliometer	–	47.36
496.51 K, Liquid, Twin ebulliometer	–	57.8
504.49 K, Liquid, Twin ebulliometer	–	70.12
512.5 K, Liquid, Twin ebulliometer	–	84.53
520.56 K, Liquid, Twin ebulliometer	–	101.31
528.68 K, Liquid, Twin ebulliometer	–	120.8
536.85 K, Liquid, Twin ebulliometer	–	143.23
545.06 K, Liquid, Twin ebulliometer	–	169
553.32 K, Liquid, Twin ebulliometer	–	198.45
553.33 K, Liquid, Twin ebulliometer	–	198.45
561.65 K, Liquid, Twin ebulliometer	–	232
570.01 K, Liquid, Twin ebulliometer	–	270
769.9 K, Gas, Measured as part of TC determination by DSC	160.5	–
775.8 K, Liquid, Measured as part of TC determination by DSC	444.6	–
784 K, Gas, Measured as part of TC determination by DSC	244.7	–
785.1 K, Liquid, Measured as part of TC determination by DSC	349.8	–
786 K, Gas, Measured as part of TC determination by DSC	318.7	–

Conditions	Critical temperature [K]	mass density [kg/m3]	molar heat capacity [J/K/mol]
323.14 K, Liquid	–	1049.3	–
348.13 K, Liquid	–	1029	–
373.12 K, Liquid	–	1009.5	–
398.12 K, Liquid	–	988.5	–
423.11 K, Liquid	–	967.8	–
448.11 K, Liquid	–	947.5	–
473.11 K, Liquid	–	926.6	–
498.11 K, Liquid	–	904	–
Liquid, DTA	787	–	–
[2], 5 K	–	–	0.45
[2], 6.105 K	–	–	0.81
[2], 7.027 K	–	–	1.26
[2], 8.004 K	–	–	1.86
[2], 9.004 K	–	–	2.64
[2], 10 K	–	–	3.53
[2], 10.06 K	–	–	3.58
[2], 11.21 K	–	–	4.73
[2], 12.47 K	–	–	6.05
[2], 13.87 K	–	–	7.66
[2], 15.42 K	–	–	9.47
[2], 17.14 K	–	–	11.51
[2], 19.04 K	–	–	13.71
[2], 20 K	–	–	14.8
[2], 21.13 K	–	–	16.07
[2], 23.44 K	–	–	18.64
[2], 25.98 K	–	–	21.32
[2], 28.81 K	–	–	24.19
[2], 30 K	–	–	25.37
[2], 31.94 K	–	–	27.23
[2], 35.44 K	–	–	30.44
[2], 39.36 K	–	–	33.85
[2], 40 K	–	–	34.39
[2], 43.73 K	–	–	37.46
[2], 48.59 K	–	–	41.21
[2], 50 K	–	–	42.28
[2], 52.43 K	–	–	44.08
[2], 53.97 K	–	–	45.21
[2], 57.17 K	–	–	47.47
[2], 59.94 K	–	–	49.35
[2], 60 K	–	–	49.4
[2], 62.72 K	–	–	51.23
[2], 69 K	–	–	55.27
[2], 70 K	–	–	55.87
[2], 75.99 K	–	–	59.46
[2], 80 K	–	–	61.81

Conditions	Molar enthalpy of transition or fusion [kcal/mol]	Triple point temperature [K]
Crystal	–	246.94
[1]	2.565	–
